# Values of other authors in patent publication US8716300B2, “Frequency modulated drug delivery (FMDD)” (Synthonics, Inc., priority 2008, dated 2014).
# Columns and labels:
# [1] = tested on: MES induced seizures; conditions: combined treatment of dizocilpine with valproate
# [2] = tested on: reserpinized rats; conditions: remacemide 5 mg/kg administered with lowest effective dose of levodopa (75 mg/kg)
Compound,protection against MES induced seizures [1],reduction in the ED50 of valproate ([1]; MES induced seizures),increase in horizontal motor activity over levodopa given alone [2]
C[C@]12N[C@H](Cc3ccccc31)c1ccccc12 [dizocilpine],50%,~3 fold,–
CC(Cc1ccccc1)(NC(=O)CN)c1ccccc1 (stereo not drawn) [remacemide],–,–,9 fold
